Measurements taken from patent US11207285B2, “Diabetes treatment regimens using alpha, alpha-substituted long-chain amphipathic carboxylates” (SYNDROMEX LTD., priority 2016, dated 2021).
Several values for one entry are separate records, joined by “and”; a condition that tells them apart may be missing. Equal values may be shown once.

Legend:
[1] = system: AMP-activated protein kinase (AMPK); assay: modulation of AMPK activity
[2] = molecular target: mammalian target of rapamycin (mTORC1) (Homo sapiens, UniProt P42345); assay: modulation of mTORC1 activity
[3] = system: Sterol response element binding protein 1 & 2 (SREBP); assay: transcriptional activity of SREBP
[4] = system: cultured human HepG2 liver cells; assay: inhibition of lipoprotein production in HepG2 cells; format: cell-based
half-life in rats = conditions: rat, in vivo, read-out: half-life (T1/2) (converted)
Excerpt: (§1) The half-life (T1/2) of Medica compounds in humans differs considerably from their half-life in model animals. […] This difference in half-life could not be expected, and is of considerable significance when designing a new treatment protocol for humans.

half-life in dogs = conditions: dog, in vivo, read-out: half-life (T1/2) (converted)
Excerpt: as §1

[5] = system: Type 2 Diabetes Mellitus (T2D) patients; assay: 4-week M16αα study in T2D patients, efficacy; format: in vivo, human; conditions: for Comp ISI / HP ISI / HbA1c Day 90 - extrapolated / IR / HbA1c Day 28: after
Excerpt: Exploratory, double-blind, randomized, placebo-controlled study, to evaluate the safety, efficacy and pharmacokinetics of 4-week M16αα treatment of Type 2 Diabetes Mellitus (T2D) patients. T2D patients were either non-treated or receiving ongoing treatment with metformin alone or in combination with other standard-of-care (SoC) oral or parenteral antidiabetic drug/s. T2D patients, non-treated or treated with SoC antidiabetic drugs as outlined below, were screened for eligibility (inclusion/exclusion according to criteria detailed below), followed by being randomly allocated to receive once daily either add-on M16αα (40 mg M16αα plus 130 mg microcrystalline cellulose in gelatin capsules) or add-on placebo (130 mg microcrystalline cellulose in gelatin capsules), in addition to the SoC anti-diabetic treatment they have been receiving regularly. One patient was not under SoC anti-diabetic drug treatment. Sixteen (16) patients were randomized to M16αα treatment and 3 patients were randomized to placebo treatment. Patients randomized to M16αα treatment were dosed for 28 days with add-on M16αα in double-blinded manner, followed by 4-week recovery period using add-on placebo in a single-blinded manner. Patients randomized to placebo treatment were dosed for 28 days with add-on placebo in double-blinded manner. Cohort 1 included 6 uncontrolled T2D patients (HbA1c>7.3%), 5 treated for their hyperglycemia by metformin only (patients 101, 102, 103, 105, 106), and one naïve patient (not under SoC anti-diabetic treatment, patient 108). Cohort 2 included 6 T2D patients (HbA1c>7.3%) (patients 202, 203, 205, 206, 207, 210) treated for their hyperglycemia by a variety of SoC anti-diabetic drug/s except insulin/insulin analogs (metformin plus sulphonylurea and/or DPP4 inhibitor and/or GLP1 analog and/or SGLT2 inhibitor). Cohort 3 included 4 T2D patients (HbA1c>7.3%) treated for their hyperglycemia by basal insulin analogs and a variety of anti-diabetic drugs (metformin and/or sulphonylurea and/or DPP4 inhibitor and/or GLP1 analog and/or SGLT2 inhibitor). During the study period the subjects underwent physical examination, clinical pathology, hematology, urinalysis, lipid profile, HbA1C, continuous glucose monitoring (CGM) and an oral glucose tolerance test (OGTT) (75 g glucose; glucose, insulin, c-peptide; 0, 30, 60, 120, 180 min) prior to dosing, upon end of M16αα treatment, and following the recovery period (EOS visit). HbA1c, Continuous glucose monitoring (CGMS), OGTT (Glucose/Insulin/C-peptide), HOMA, Hepatic Insulin Sensitization Index (HP ISI), Composite insulin sensitization index (Comp ISI), Insulin resistance (IR), plasma lipid profile (Triglycerides, Cholesterol, LDL-C, VLDL-C, HDL-C, non-HDL-C, apoB), hsCRP, Fibrinogen. All measured variables and derived parameters were listed individually and tabulated by descriptive statistics. For descriptive statistics summary tables were provided giving sample size, means, standard deviations and 95% CI (Confidence Interval) or frequency with percentage according to the scale of the variable. Regarding small sample size, non-parametric methods were conducted: Differences between end of drug dosing and baseline for each efficacy parameter were analyzed using the Wilkcoxon matched-pairs signed-ranks test. Differences between M16αα-treated and placebo groups were analyzed for each efficacy parameter using the Mann-Whitney two-sample U-test. Drug: 40 mg 2,2,15,15-tetramethylhexadecane-dioic acid (M16αα) per day, in a gelatin capsule. This daily dose of M16αα is based on safety and PK considerations in a previous, single-dose study in healthy volunteers and pre-clinical data. Administration: oral, before breakfast, with 240 ml water, for both drug and placebo. M16αα or placebo were administered orally for 28 consecutive days, followed by additional 28 days of placebo. End of Study (EOS) visit took place about 4 weeks after last dose of M16αα administered. […]

rats = conditions: WO98/30530, cited from earlier work
[6] = Cohort 1 single patients 101, 102, 106 on metformin only, add-on 40 mg/day
[7] = Cohort 2 single patients 202, 205, 206 on SoC drugs except insulin, add-on 40 mg/day
[8] = Cohort 3 single patients 301-304 on basal insulin analogs and other drugs, add-on 40 mg/day
[9] = patient 108, no ongoing anti-diabetic treatment, 40 mg/day
[10] = baseline 1.0, all patients on add-on M16αα
[11] = estimated by linear extrapolation from 28 d
[12] = weighted average, all patients on add-on M16αα

## CC(C)(CCCCCCCCCCCCC(C)(C)C(=O)O)C(=O)O [M16αα, 2,2,15,15-tetramethyl-hexadecane-1,16-dioic acid]
[1]
  AMPK activity: activating
[2]
  mTORC1 activity: suppressing
[3]
  transcriptional activity of SREBP: suppressing
[4]
  lipoprotein production: significant or full inhibition
half-life in rats
  half-life: 2.4 ± 0.6 h
half-life in dogs
  half-life: 65 h
[5]; % of time with glucose lower than 180 mg %, baseline 71 ± 25%
  Continuous glucose monitoring [CGM(<180 mg %)], Change in Baseline: Increase by: Increase by 8.4%
[5]; M16αα added-on to metformin
  insulin sensitizing activity compared with add-on pioglitazone: surpasses that reported for add-on Pio
[5]; T2D patient not under anti-diabetic SoC, low dose
  diabetic profile: significantly improved diabetic profile
[5]; add-on M16αα
  prospective glucose-lowering activity compared with SoC oral anti-diabetic drugs: surpasses those reported for current SoC oral anti-diabetic drugs
[5]; [6]
  Comp ISI: 19.17 and 5.0 and 10.10
  HP ISI: 9.5 and 2.3 and 2.1
  HbA1c Day 90 - extrapolated: 5.3 and 5.9 and 5.4
  IR: 0.4 and 0.6 and 0.5
[5]; Cohort 1 single patients 101, 102, 106 on metformin only, add-on 40 mg/day oral 28 d
  HbA1c Day 28: 6.7 and 6.9 and 6.8
[5]; [7]
  Comp ISI: 2.2 and 4.7 and 5.5
  HP ISI: 0.4 and 0.6 and 1.1
  HbA1c Day 90 - extrapolated: 6.0 and 8.1 and 4.1
  IR: 2.2 and 1.8 and 0.9
[5]; Cohort 2 single patients 202, 205, 206 on SoC drugs except insulin, add-on 40 mg/day oral 28 d
  HbA1c Day 28: 6.8 and 8.1 and 7.1
[5]; [8]
  Comp ISI: 4.6 and 6.9 and 6.3
  HP ISI: 0.79 and 0.88 and 1.33 and 1.41
  IR: 1.4 and 1.1 and 0.8 and 0.7
[5]; Cohort 3 single patients 301-304 on basal insulin analogs and other drugs, add-on 40 mg/day oral 28 d
  HbA1c Day 28: 8.17 and 7.33 and 7.52 and 8.73
[5]; [9]
  Comp ISI: 5.8
  HP ISI: 1.6
  HbA1c Day 90 - extrapolated: 7.6
  IR: 0.6
[5]; patient 108, no ongoing anti-diabetic treatment, 40 mg/day oral 28 d
  HbA1c Day 28: 7.6
[5]; [10]
  Composite insulin sensitization index (CompISI), Change in Baseline: Increase by: Increase by 2.04-fold
  HOMA insulin resistance (HOMAIR), Change in Baseline: Increase by: Increase by 0.59-fold
  Hepatic insulin sensitization index (HepISI), Change in Baseline: Increase by: Increase by 2.50-fold
[5]; baseline 1.0, beta-cell rest
  HOMA % B, Change in Baseline: Decrease by: Decrease by 0.81-fold
[5]; baseline 88 ± 9 kg
  Bodyweight, Change in Baseline: Decrease by: Decrease by 0.6 kg
[5]; baseline 100, all patients on add-on M16αα
  Σglucose (OGTT 0, 30, 60, 120, 180 min), Change in Baseline: Decrease by: Decrease by 7.8%
[5]; baseline 100, beta-cell rest
  Σc-peptide (OGTT 0, 30, 60, 120, 180 min), Change in Baseline: Decrease by: Decrease by 17%
[5]; baseline 136 ± 13/75 ± 7
  Hypertension, Change in Baseline: Decrease in 5 patients
[5]; baseline 159 ± 56 mg/dL, all patients on add-on M16αα
  Fasting blood glucose (FBG), Change in Baseline: Decrease by: Decrease by 11.7%
[5]; baseline 169 ± 95 mg/dL
  Plasma triglycerides, Change in Baseline: Decrease by: Decrease by 18%
[5]; [11]
  HbA1C (%) (Estimated 90 d), Change in Baseline: Decrease by: Decrease by 0.96-1.44%
  HbA1C (Estimated 90 d), Change in Baseline: Decrease: (10.6-15.8 mmol/mol)
  HbA1C (Estimated 90 d), Change in Baseline: Decrease as eAG: (eAG 28-42 mg/dL)
[5]; patients under anti-diabetic SoC
  effectiveness as add-on drug: effective as an add-on drug
[5]; [12]
  HbA1C (28 d), Change in Baseline: Decrease: (5.28 mmol/mol)
  HbA1C (28 d), Change in Baseline: Decrease as eAG: (eAG 14 mg/dL)
[5]; weighted average, all patients on add-on M16αα 40 mg/day, baseline 7.96 ± 0.81
  HbA1C (%) (28 d), Change in Baseline: Decrease by: Decrease by 0.48%
rats; hyperlipidemic animal models
  plasma lipids: normalization of plasma lipids
rats; normolipidemic animals
  plasma triglycerides and cholesterol: decrease in plasma triglycerides and cholesterol
rats; rats
  hypolipidemic activity: potent hypolipidemic agent
